Assay in all cases: combination Emax (second highest fraction inhibited in the dose matrix, 72 h); higher = more inhibition; extreme values may be limits of the assay
Assay [1] deals with CAL-51 (Breast Carcinoma). A digest of the protocol:
(§1)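 Cell lines in DMEM/F12 or RPMI with 10% FBS were plated in 1536-well plates, held 24 hours at 37°C, 5% CO2, then given two-drug dose matrices for 72 hours (DMSO typically 0.2%). Viability was read by CellTiter-Glo 2.0 luminescence and scaled as inhibition from 0 (vehicle wells) to 1 (blank wells). Combination Emax is the second-highest inhibition in the matrix; Bliss excess is observed combination effect minus expected EA + EB − EA·EB, EA and EB being single-agent effects.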

The next assay deals with COLO-829 (Melanoma). A digest of the protocol:
as §1

The subject of assay [2] is EN (Endometrial Carcinoma). The procedure, abridged: as §1
The subject of assay [3] is HCC-15 (Squamous Cell Lung Carcinoma). A digest of the protocol: as §1
For the next assay, the system named is HMV-II (Melanoma). The procedure, abridged: as §1
In assay [4] the test system is HO-1-u-1 (Oral Cavity Carcinoma). The procedure, abridged:
as §1

Assay [5] deals with Hs-633T (Other Solid Carcinomas). A digest of the protocol: as §1
Assay [6] has as its system KYSE-410 (Esophageal Squamous Cell Carcinoma). A digest of the protocol:
as §1

In assay [7] the test system is LoVo (Colorectal Carcinoma). The procedure, abridged:
as §1

For assay [8], the system named is MDA-MB-468 (Breast Carcinoma). The procedure, abridged: as §1
In the next assay the test system is NCI-H2461 (Mesothelioma). The procedure, abridged:
as §1

A further assay relates to NCI-H2795 (Mesothelioma). A digest of the protocol: as §1
The next assay relates to NCI-H28 (Mesothelioma). A digest of the protocol: as §1
Assay [9] has as its system PCI-30 (Head and Neck Carcinoma). The procedure, abridged:
as §1

The test system of assay [10] is RT-112 (Bladder Carcinoma). The procedure, abridged:
as §1

In the next assay the test system is SH-4 (Melanoma). The procedure, abridged:
as §1

The subject of assay [11] is SU-DHL-6 (B-Cell Non-Hodgkin's Lymphoma). The procedure, abridged:
as §1

Assay [12] concerns SUP-T1 (T-Lymphoblastic Leukemia). A digest of the protocol:
as §1

Assay [13] concerns TE-4 (Esophageal Squamous Cell Carcinoma). A digest of the protocol:
as §1

Assay [14] has as its system UMC-11 (Other Solid Carcinomas). A digest of the protocol: as §1

The results in this text go back to the supplement of paper PMC11061612.

In the case of `CCN(CCO)CCCOc1ccc2c(Nc3cc(CC(=O)Nc4cccc(F)c4)[nH]n3)ncnc2c1` [AZD2811] + C[C@@H]1COCCN1C2=NC(=NC(=C2)C3(CC3)[S@](=N)(=O)C)C4=C5C=CNC5=NC=C4 [AZD6738] (first compound max 1 µM, 7x7, partner max 10 µM), the “combination Emax” value in assay [1] worked out at 0.922; with COLO-829 (Melanoma), 0.219; in assay [2], 0.609; in assay [3], 0.824; with HMV-II (Melanoma), 0.313; in assay [4], 0.852. In addition, the “combination Emax” value in [5] is 0.885; in [6] it was 0.355; in [7], 0.83; in assay [8], 0.563; in the assay on NCI-H2461 (Mesothelioma), 0.739; in the assay on NCI-H2795 (Mesothelioma) it was 0.674. In addition, the “combination Emax” value is 0.533 in the assay with NCI-H28 (Mesothelioma); 0.581 in assay [9]; 0.824 in assay [10]; 0.31 with SH-4 (Melanoma); 0.446 in assay [11]; 0.777 in [12]. For the same compound, the “combination Emax” value in assay [13] was found to be 0.372; in [14] it was 0.799.
Take `Cc1cc2ncnn2cc1Nc1ncc2c(n1)n(C1CCOCC1)c(=O)n2C` [AZD7648] + C=CCn1c(=O)c2cnc(Nc3ccc(N4CCN(C)CC4)cc3)nc2n1-c1cccc(C(C)(C)O)n1 [AZD1775] (first compound max 10 µM, partner max 1 µM): the “combination Emax” value in [1] came out at 0.864; with COLO-829 (Melanoma), 0.214; in assay [2] it was 0.662; in assay [3] it was 0.345; with HMV-II (Melanoma) it was 0.521; in [4], 0.617. The “combination Emax” value in assay [5] is 0.748; in [6] it was 0.361; in assay [7] it was 0.732; in assay [8] it was 0.526; in the assay on NCI-H2461 (Mesothelioma), 0.659; with NCI-H2795 (Mesothelioma), 0.602. Also, the “combination Emax” value amounted to 0.42 in the assay with NCI-H28 (Mesothelioma); 0.375 in [9]; 0.742 in assay [10]; 0.447 with SH-4 (Melanoma); 0.753 in assay [11]; 0.834 in assay [12]. For the same compound, the figures for the “combination Emax” value in assay [13] and in assay [14] were 0.431 and 0.424, respectively.
For the compound `C=CCn1c(=O)c2cnc(Nc3ccc(N4CCN(C)CC4)cc3)nc2n1-c1cccc(C(C)(C)O)n1` [AZD1775] + C[C@@H]1COCCN1C2=NC(=NC(=C2)C3(CC3)[S@](=N)(=O)C)C4=C5C=CNC5=NC=C4 [AZD6738] (first compound max 1 µM, partner max 10 µM), the “combination Emax” value in assay [1] was found to be 0.936; in the assay with COLO-829 (Melanoma), 0.129; in assay [2], 0.764; in assay [3], 0.504; with HMV-II (Melanoma) it was 0.495; in [4], 0.973. Besides, the “combination Emax” value in [5] came to 0.937; in assay [6], 0.499; in [7], 0.875; in [8] it was 0.634; with NCI-H2461 (Mesothelioma), 0.764; in the assay with NCI-H2795 (Mesothelioma), 0.803. Also, the “combination Emax” value in the assay with NCI-H28 (Mesothelioma) was 0.618; in assay [9] it was 0.696; in assay [10] it was 0.966; in the assay with SH-4 (Melanoma), 0.56; in assay [11], 0.922; in assay [12], 0.882. For the same compound, the “combination Emax” value in [13] was 0.805; in [14], 0.785.
`CN(CCO)CC[C@H](CSc1ccccc1)Nc1ccc(S(=O)(=O)NC(=O)c2ccc(N3CCC([C@@H](O)c4ccccc4-c4ccc(Cl)cc4)CC3)cc2)cc1S(=O)(=O)C(F)(F)F` [AZD4320] + CN(C)CCCOc1ccc(-c2ccc3ncc4c(c3c2)n(C2CCOCC2)c(=O)n4C)cn1 [AZD0156] (first compound max 1 µM, 7x7, partner max 1 µM): the “combination Emax” value is 0.16 in [1]; 0.0619 in the assay on COLO-829 (Melanoma); 0.218 in assay [2]; 0.936 in assay [3]; 0.157 with HMV-II (Melanoma); 0.259 in assay [4]. Besides, the “combination Emax” value in assay [5] is 0.163; in assay [6], 0.108; in assay [7], 0.287; in assay [8] it was 0.656; with NCI-H2461 (Mesothelioma) it was 0.259; with NCI-H2795 (Mesothelioma) it was 0.417. Moreover, the “combination Emax” value in the assay with NCI-H28 (Mesothelioma) was 0.163; in assay [9], 0.158; in [10] it was 0.188; with SH-4 (Melanoma), 0.16; in assay [11] it was 0.986; in [12], 0.385. Besides, the results for the “combination Emax” value in [13] and in [14] were 0.0906 and 0.567, respectively.
With `Cc1c2c(nn1C)CSCc1cc(n(C)n1)CSc1cc(c3ccccc3c1)OCCCc1c(C(=O)O)n(C)c3c-2c(Cl)ccc13` [AZD5991] + Cn1cnc2c(F)c(Nc3ccc(Br)cc3Cl)c(C(=O)NOCCO)cc21 [Selumetinib] (first compound max 1 µM, 7x7, partner max 3 µM), the “combination Emax” value is 0.406 in assay [1]; 0.907 in the assay with COLO-829 (Melanoma); 0.535 in assay [2]; 0.563 in assay [3]; 0.829 in the assay with HMV-II (Melanoma); 0.292 in [4]. Moreover, the “combination Emax” value in assay [5] amounted to 0.64; in assay [6], 0.331; in assay [7] it was 0.565; in [8], 0.595; in the assay with NCI-H2461 (Mesothelioma) it was 0.359; with NCI-H2795 (Mesothelioma) it was 0.971. For the same compound, the “combination Emax” value in the assay with NCI-H28 (Mesothelioma) came to 0.316; in assay [9], 0.198; in assay [10], 1; in the assay with SH-4 (Melanoma), 0.96; in [11], 1; in assay [12] it was 0.236. For the same compound, the “combination Emax” value in assay [13] came out at 0.453; in [14], 0.348.
In the case of `CC1(C)CCC(CN2CCN(c3ccc(C(=O)NS(=O)(=O)c4ccc(NCC5CCOCC5)c([N+](=O)[O-])c4)c(Oc4cnc5[nH]ccc5c4)c3)CC2)=C(c2ccc(Cl)cc2)C1` [Venetoclax] + CN(C)CCCOc1ccc(-c2ccc3ncc4c(c3c2)n(C2CCOCC2)c(=O)n4C)cn1 [AZD0156] (first compound max 1 µM, 7x7, partner max 1 µM), the “combination Emax” value in assay [1] is 0.242; in the assay with COLO-829 (Melanoma) it was 0.21; in assay [2], 0.426; in assay [3], 0.215; with HMV-II (Melanoma), 0.289; in assay [4], 0.413. Moreover, the “combination Emax” value in [5] was found to be 0.266; in assay [6], 0.172; in assay [7] it was 0.283; in assay [8] it was 0.377; in the assay on NCI-H2461 (Mesothelioma), 0.525; with NCI-H2795 (Mesothelioma), 0.46. Further, the “combination Emax” value in the assay on NCI-H28 (Mesothelioma) is 0.193; in assay [9], 0.149; in [10], 0.243; in the assay with SH-4 (Melanoma), 0.279; in assay [11], 0.904; in assay [12], 0.616. The “combination Emax” value is 0.179 in assay [13] and 0.269 in assay [14].
